Consider seven molecules from US20250339547A1, “MET BCL-XL INHIBITOR ANTIBODY-DRUG CONJUGATES AND METHODS OF USE THEREOF” (Novartis AG, priority 2022, published 2025).

Series [1] deals with T-ALL (T-cell Acute Lymphoblastic Leukemia) and different types of solid tumors. The following applies: cited from earlier work.
Series [2] deals with hematological malignancies and solid tumors. The following applies: several hematological malignancies and solid tumors; cited from earlier work.
A further series has as its system lymphoid malignancies. The following applies: cited from earlier work.
For a further series, the system named is arthritis and lupus. The following applies: mice, animal models of arthritis and lupus; cited from earlier work.
A further series has as its system allogeneic T-cell. The following applies: in vitro; cited from earlier work.
Another series has as its system lymphocyte proliferation. The following applies: in vitro; cited from earlier work.
Series [3] concerns allogeneic T- and B-cell responses. The following applies: after skin transplantation; cited from earlier work.
The next series concerns Panc 10.05. The series is described as follows: Pancreatic cancer cell line viability, single agent or 1:1 combination (CTG 120h), Example 10. In kind it is cell-based. The following applies: Homo sapiens, Panc1005, 120 h, Panc 10.05, CTG 120 h. How it is done:
(§1) Cell lines were cultured in the media described above at 37° C. in a humidified atmosphere containing 5% CO2. Cells were seeded in 96 well clear bottom plates (96 well clear-bottom, white, Corning reference 3903) and exposed to the mAbs or ADCs as single agents or in 1:1 combination with Paclitaxel, Trametinib or Gemcitabine. When in 1:1 combination, both the combining partner (Paclitaxel, Trametinib or Gemcitabine) and the mAb or ADC were serially diluted (9 concentrations each, triplicates). Effect on cell viability was assessed after 5 days of incubation at 37° C./5% CO2 by quantification of cellular ATP levels using CellTiter-Glo reagent (Promega Ref: G7571) at 75 μL reagent/well. All the conditions were tested in triplicates. Luminescence was quantified on a multipurpose plate reader. IC50s were calculated using standard four-parametric curve fitting. IC50 is defined as the compound concentration at which the CTG signal is reduced to 50% of that measured for the control. Two independent experiments were performed (N1 and N2).

The next series has as its system BxPC-3. The series is described as above. In kind it is cell-based. The following applies: Homo sapiens, BXPC-3, 120 h, BxPC-3, CTG 120 h. How it is done:
as §1

Another series deals with AsPC-1. Described as above. In kind it is cell-based. The following applies: Homo sapiens, ASPC1, 120 h, AsPC-1, CTG 120 h. How it is done:
as §1

The next series concerns KP-4. The series is described as above. In kind it is cell-based. The following applies: Homo sapiens, KP-4, 120 h, KP-4, CTG 120 h. How it is done: as §1
The test system of a further series is Hs766T. The description is as above. It is filed as cell-based. The method, then:
as §1

Series [4] relates to pancreatic cancer cell lines. The series is described as follows: Pancreatic cancer cell line panel of Example 10 (CTG 120h). It is filed as cell-based. The following applies: pancreatic cancer cell lines of Table 16, single agents.
Description: Cell lines were cultured in the media described above at 37° C. in a humidified atmosphere containing 5% CO2. […] When in 1:1 combination, both the combining partner (Paclitaxel, Trametinib or Gemcitabine) and the mAb or ADC were serially diluted (9 concentrations each, triplicates). Effect on cell viability was assessed after 5 days of incubation at 37° C./5% CO2 by quantification of cellular ATP levels using CellTiter-Glo reagent (Promega Ref: G7571) at 75 μL reagent/well. All the conditions were tested in triplicates. Luminescence was quantified on a multipurpose plate reader. IC50s were calculated using standard four-parametric curve fitting. […] Two independent experiments were performed (N1 and N2).
The next series has as its system NCI-H1975. The series is described as follows: Lung cancer cell line viability, single agent or 1:1 combination (CTG 120h), Example 7. In kind it is cell-based. The following applies: NCI-H1975, CTG 120 h. The method, then:
(§2) Cell lines were cultured in the media described above at 37° C. in a humidified atmosphere containing 5% CO2. Cells were seeded in 96 well clear bottom plates (96 well clear-bottom, white, Corning reference 3903) and exposed to the mAbs, mAbs mixture, ADCs or ADCs mixture as single agents or in 1:1 combination with Paclitaxel. When in 1:1 combination, both the combining partner (Paclitaxel) and the mAb, mAb mixture, ADC or ADC mixture were serially diluted (9 concentrations each, triplicates). Effect on cell viability was assessed after 5 days of incubation at 37° C./5% CO2 by quantification of cellular ATP levels using CellTiter-Glo reagent (Promega Ref: G7571) at 75 μL reagent/well. All the conditions were tested in triplicates. Luminescence was quantified on a multipurpose plate reader. IC50s were calculated using standard four-parametric curve fitting. IC50 is defined as the compound concentration at which the CTG signal is reduced to 50% of that measured for the control. Two independent experiments were performed (N1 and N2).

For the next series, the system named is HCC366. The description is as above. It is filed as cell-based. The following applies: HCC366, CTG 120 h. How it is done:
as §2

A further series has as its system HCC4006. The series is described as above. In kind it is cell-based. The following applies: HCC4006, CTG 120 h. The method, then:
as §2

A further series deals with LU65. The description is as above. It is filed as cell-based. The following applies: LU65, CTG 120 h. The method, then: as §2
The test system of a further series is NCI-H1838. The description is as above. It is filed as cell-based. The following applies: NCI-H1838, CTG 120 h. The method, then:
as §2

The subject of another series is HCC827. The description is as above. It is filed as cell-based. The following applies: HCC827, CTG 120 h. How it is done: as §2
In a further series the test system is HCC78. The series is described as above. In kind it is cell-based. The following applies: HCC78, CTG 120 h. How it is done:
as §2

A further series has as its system NCI-H441. The series is described as above. The following applies: NCI-H441, CTG 120 h. It is filed as cell-based. How it is done: as §2
Another series concerns CALU1. Described as above. The following applies: CALU1, CTG 120 h. In kind it is cell-based. The method, then:
as §2

Non-standard residues stand in square brackets, D forms with d. Residues, ends and D or L forms follow the SMILES beside them. *: point of attachment. Dolaproine = CO[C@@H]([C@@H]1CCCN1)[C@@H](C)C(=O)O; Dil = CC[C@H](C)[C@H](NC)[C@@H](CC(=O)O)OC; X1 = C[C@@H](N*)[C@@H](O)c1ccccc1; NMeV = CN[C@H](C(=O)O)C(C)C Some results are limits rather than exact numbers.

For `CN(C)CC#Cc1ccc(OCCCc2sc(N3CCc4cccc(C(=O)Nc5nc6ccccc6s5)c4C3)nc2C(=O)O)c(F)c1` [A-1155463], the “in vivo activity in pre-clinical models” value in series [1] was “exhibited in vivo activity”.
Take `Cc1c(-c2ccc(N3CCc4cccc(C(=O)Nc5nc6ccccc6s5)c4C3)nc2C(=O)O)cnn1CC12CC3CC(CC(C3)C1)C2` [A-1331852]: the “in vivo activity in pre-clinical models” value in [1] is “exhibited in vivo activity”.
In the case of `CC1(C)CCC(c2ccc(Cl)cc2)=C(CN2CCN(c3ccc(C(=O)NS(=O)(=O)c4ccc(N[C@H](CCN5CCOCC5)CSc5ccccc5)c(S(=O)(=O)C(F)(F)F)c4)cc3)CC2)C1` [ABT-263, navitoclax], in series [2], the “activity in pre-clinical models” value was “has shown activity”. Besides, in the series on lymphoid malignancies, the “antitumor activity in clinical studies” value is given as “objective antitumor activity”.
With `CN(C)CC[C@H](CSc1ccccc1)Nc1ccc(S(=O)(=O)NC(=O)c2ccc(N3CCN(Cc4ccccc4-c4ccc(Cl)cc4)CC3)cc2)cc1[N+](=O)[O-]` [ABT-737], in the series on arthritis and lupus, the disease severity entry is given as “significant decrease in disease severity”. In the series with allogeneic T-cell, the “allogeneic T-cell activation, proliferation, and cytotoxicity” value was “prevented”. Moreover, in the series with lymphocyte proliferation, the “inhibition of lymphocyte proliferation” value was “potent inhibition”. In addition, the “allogeneic T- and B-cell responses” value in series [3] was “inhibited”.
`Nc1ccn([C@@H]2O[C@H](CO)[C@@H](O)C2(F)F)c(=O)n1` [Gemcitabine, gemcitabine]: the IC50 was 68.3 nM in the series with Panc 10.05 (mean); 58.8 nM in the series with Panc 10.05 (n1); 77.9 nM in the series on Panc 10.05 (n2); 13 nM with BxPC-3 (mean); 10.7 nM in the series on BxPC-3 (n1); 15.3 nM in the series with BxPC-3 (n2). Further, the IC50 is 241 nM in the series with AsPC-1 (mean); 406 nM in the series on AsPC-1 (n1); 75.2 nM with AsPC-1 (n2); 10.9 nM with KP-4 (mean); 9.74 nM in the series with KP-4 (n1); 12 nM in the series with KP-4 (n2). Besides, the IC50 with Hs766T (mean), in the series on Hs766T (n1) and with Hs766T (n2) was greater than 30000 nM each time. Further, in series [4], the “effect on the viability” value was “induced dose dependent decrease in cell viability with measurable IC50 for most of the cell lines”.
Take `CC[C@H](C)[C@@H]([C@@H](CC(=O)N1CCC[C@H]1[C@H](OC)[C@@H](C)C(=O)N[C@H](C)[C@@H](O)c1ccccc1)OC)N(C)C(=O)[C@@H](NC(=O)[C@@H](NC)C(C)C)C(C)C` [MMAE, monomethyl auristatin E] (H-[NMeV]V[Dil][Dolaproine]-X1): the IC50 in the series with NCI-H1975 (Mean) was 0.25 nM; in the series with NCI-H1975 (n1), 0.25 nM; in the series with HCC366 (Mean), 0.645 nM; with HCC366 (n1) it was 0.53 nM; with HCC366 (n2), 0.76 nM; with HCC4006 (Mean) it was 0.19 nM. For the same molecule, the IC50 in the series on HCC4006 (n1) is 0.12 nM; with HCC4006 (n2), 0.26 nM; in the series with LU65 (Mean) it was 0.83 nM; in the series with LU65 (n1), 0.7 nM; in the series on LU65 (n2), 0.96 nM; with NCI-H1838 (Mean), 60.1 nM. Also, the IC50 turned out to be 88.2 nM with NCI-H1838 (n1); 32 nM in the series on NCI-H1838 (n2); 1.3 nM in the series on HCC827 (Mean); 1.46 nM with HCC827 (n1); 1.15 nM with HCC827 (n2); 0.57 nM with HCC78 (Mean). The IC50 amounted to 0.54 nM with HCC78 (n1); 0.6 nM in the series with HCC78 (n2); 0.38 nM with NCI-H441 (Mean); 0.4 nM in the series on NCI-H441 (n1); 0.36 nM with NCI-H441 (n2); 1.01 nM with CALU1 (Mean). For the same molecule, the IC50 in the series on CALU1 (n1) was 0.64 nM; in the series on CALU1 (n2), 1.37 nM.
Consider `CC(=O)Nc1cccc(-n2c(=O)n(C3CC3)c(=O)c3c(Nc4ccc(I)cc4F)n(C)c(=O)c(C)c32)c1` [Trametinib, N-(3-{3-cyclopropyl-5-[(2-fluoro-4-iodophenyl)amino]-6,8-dimethyl-2,4,7-trioxo-3,4,6,7-tetrahydropyrido[4,3-d]pyrimidin-1(2H)-yl}phenyl)acetamide], for which the IC50 in the series with Panc 10.05 (mean) stood at 57.5 nM; with Panc 10.05 (n1), 32.4 nM; in the series with Panc 10.05 (n2), 82.6 nM; in the series on BxPC-3 (mean), 11.7 nM; in the series with BxPC-3 (n1), 8.21 nM; with BxPC-3 (n2), 15.2 nM. Also, the IC50 in the series on AsPC-1 (mean) was 9.81 nM; in the series on AsPC-1 (n1), 9.01 nM; in the series with AsPC-1 (n2), 10.6 nM; in the series on KP-4 (mean), 1660 nM; with KP-4 (n1) it was 620 nM; with KP-4 (n2), 2710 nM. Besides, the IC50 worked out at 2.82 nM with Hs766T (mean), 2.53 nM with Hs766T (n1) and 3.1 nM with Hs766T (n2). Further, the “effect on the viability” value in [4] is recorded as “induced dose dependent decrease in cell viability with measurable IC50 for most of the cell lines”.
